Measured values as given in publication PMC8721105, “Novel Trypanocidal Inhibitors that Block Glycosome Biogenesis by Targeting PEX3–PEX19 Interaction” (Frontiers in Cell and Developmental Biology, 2021).
Values joined by “and” are separate entries in the source; they are usually repeats but may differ in a detail not shown here. Equal entries are not always repeated. “Also recorded” adds a separate entry of the source. Where two headings read alike, the source gives them in different places.

B1: GST-TbPEX14: GST-tagged TbPEX14 residues 1-84 (protein)
chain: MSLLLSGVVDDGKSKPEVEHTHSEREKRVSNAVEFLLDSRVRRTPTSSKVHFLKSKGLSAEEICEAFTKVGQPKTLNEIKRILS
modifications: left off: GST, end not stated, kept

Assays:
[1] = ref ChemBridge, cited from earlier work; for Hacc (hydrogen bond acceptor) / Hdon (hydrogen bond donor): provided by the compound library supplier; for LogSw: supplier data
GST-His = target: T1, GST-His (Schistosoma japonicum, UniProt P08515); test: NMR saturation transfer difference (STD) with GST-His control; format: binding; conditions: 10 μM protein, 300 µM ligand
T1 construct: made in house; host or cells: E. coli BL21(DE3)
Description: (§1) NMR saturation transfer difference (STD) experiments ([Mayer and Meyer, 1999]) were carried out on a Bruker AVIII 600-MHz spectrometer equipped with a cryoprobe and a SampleJet auto sampler. One-dimensional (1D) and STD spectra were acquired at 298 K. Compounds were dissolved in DMSO-d6 to a final concentration of 50 mM. STD experiments with GST-TbPEX3, TbPEX19-His, and GST-His were performed in PBS (pH 7.4), 10% D2O at a protein concentration of 10 μM, and a ligand concentration of 300 µM. Saturation time and interscan delay within STD experiments were set to 2 and 2.5 s, respectively.

BSF427 cells = test: Digitonin fractionation of compound-treated BSF cells; conditions: 24 h treatment; 0.025 μg of digitonin/μg of total protein
Description: Pellets were resuspended in 420 μl of homogenization buffer and distributed evenly into four tubes each with 100 μl (4 μg protein). […] The mixture was incubated for 2 min at 37°C, vortexed for 10 s, and centrifuged (16,000 g) at 4°C for 15 min. 100 μl from the supernatant (solubilized fractions) was taken for Western blot analysis. Remaining pellet fractions were washed by adding homogenization buffer up to 125 μl and centrifuged again, supernatants were discarded, and pellets were resuspended in 100 μl for Western blotting.

[2] = Cytotoxicity test on HepG2 cells; conditions: human, HepG2 cells, Human cell cytotoxicity (EC50), HepG2, serial dilutions of up to 200 µM
[3] = tested on: PEX11-GFP–expressing BSF cells; test: Immunofluorescence of PEX11-GFP–expressing BSF cells; format: cell-based, Trypanosoma brucei; conditions: 24 h treatment
Description: (§2) BSF strain Lister 427 (termed hereafter as BSF427) and cell line 90-13 (stably expressing Tet repressor) were used in this study. BSF cells were grown in HMI-11 medium and maintained in logarithmic phase [below 2 × 10^6 cells/ml as described in [Kalel et al. (2019)]]. Genomically integrated stable transfections were performed with NotI-linearized plasmid constructs (pGN1-TbPEX11), which integrate into the spacer region of the ribosomal RNA repeat locus in the genome of cell line 90-13, and the clones were selected using blasticidin as described previously ([Kalel et al., 2015]). Expression of TbPEX11-GFP was confirmed with fluorescence microscopy following induction tests (data not shown) with a serial dilution of tetracycline, and minimal concentration (5 ng/ml) of tetracycline was used to achieve expression of the protein in more than 80% of the cells.
BSF 90-13 cells with genomically integrated PEX11-GFP were induced with 5 ng/ml of tetracycline and cultured overnight to initiate stable expression of PEX11-GFP. BSF427- and PEX11-GFP–expressing cells were treated for 24 h with 100 μM, 50 and 25 μM of each of the inhibitor, and DMSO was used as control. Compound-treated cultures with growth rates of about 50% compared to the DMSO control were harvested and stained for immunofluorescence and statistical analysis. […]

[4] = tested on: T. brucei bloodstream form parasites; test: Immunofluorescence microscopy of glycosomal aldolase localization; format: cell-based, Trypanosoma brucei; conditions: 24 h treatment; for Mislocalization (% of No. of cells) of aldolase: cultures with 50% of the growth rate of DMSO control
Description: BSF 90-13 cells with genomically integrated PEX11-GFP were induced with 5 ng/ml of tetracycline and cultured overnight to initiate stable expression of PEX11-GFP. BSF427- and PEX11-GFP–expressing cells were treated for 24 h with 100 μM, 50 and 25 μM of each of the inhibitor, and DMSO was used as control. Compound-treated cultures with growth rates of about 50% compared to the DMSO control were harvested and stained for immunofluorescence and statistical analysis. Cells were fixed with 4% paraformaldehyde in PBS containing 250 mM sucrose for 20 min. Fixed cells were immobilized on adhesive slide (StarFrost®) pre-coated with 10% (v/v) of poly-L-lysine (Sigma-Aldrich®) in water after 1-h incubation at RT. Cells were permeabilized with 0.1% (v/v) Triton X-100 in PBS (pH7.4) for 15 min and blocked in buffer D [PBS supplemented with 1% (w/v) BSA and 0.25% (v/v) Tween 20] for 1 h. Anti-TbAldolase primary antibody was used at 1:500 dilution in buffer D for 1.5 h incubation. After five washes in PBS for 30 min, samples were treated with Goat anti-rabbit secondary antibody (1:200, v/v, Alexa Fluor™ 594). Samples were washed, dried, and mounted with Mowiol containing 4′,6-diamidino-2-phenylindole (DAPI). Immuno-stained cells were visualized with Zeiss Elyra microscopy. Pictures of stack 3 (of 5), rotation 1 (of 3), and phase 5 (of 5) were chosen for all control and compound-treated samples.

GST-TbPEX3d44 = test: NMR saturation transfer difference (STD) with GST-TbPEX3; format: binding, Trypanosoma brucei; conditions: for STD NMR effect with GST-TbPEX3: 10 μM protein, 300 µM ligand; for Target protein (NMR analysis): protein assigned as target, GST-TbPEX3, TbPEX19-His and GST-His tested
Description: as §1

[5] = target: TbPEX3–TbPEX19 interaction (Trypanosoma brucei brucei, UniProt Q383Q3); test: AlphaScreen TbPEX3–TbPEX19 inhibitor screening and dose response; format: binding
Description: The above solutions were prepared in the reaction buffer [0.5% BSA v/v, 0.05% Tween 80 v/v, 0.2 mM DTT, PBS (pH7.4)] on the day of assay, diluting the compounds from 1 mM stocks in DMSO. Compounds were incubated with the proteins for 30 min at room temperature (RT). Five microliters of AlphaScreen Nickel-chelate acceptor beads (cat. no. 6760619C, PerkinElmer®) and AlphaScreen Glutathione donor beads (cat. no. 6765300, PerkinElmer®) were distributed to the mixture consecutively, with a 15-min interval. The complete 25-μl reaction solutions were incubated for 45 min at RT in the dark, and Alpha signals were captured with Cytation 5 plate reader (BioTek®) with the gain value set at 180. Schematic representation of the experiment setup of the high-throughput screening assays was prepared with BioRender.com.
Following initial hit selection, 10 μM of drugs were tested with GST-His (54 nM) and TbPEX19/TbPEX3 (5 nM) in smaller scale, and the level of signal was normalized (in %) and compared.

T. brucei BSF427 = test: T. brucei cell viability, resazurin-based assay; parameters: species or system Trypanosoma brucei; conditions: BSF427, 3 days of incubation, resazurin, read-out: T. brucei toxicity (EC50)
Description: as §2
T. brucei BSF427 and compound dilutions were mixed in 1 : 1 (v/v) ratio to total volume of 200 μl, to reach final concentrations of 2 × 10^3 cells/ml and 0.19–100 μM of inhibitors, in quadruplicates in 96-well plates. Culture medium with no cells was used as negative control and cultures without presence of compounds as positive control representing normal rate of cell growth. Cells were grown at 37°C in an incubator with humidified air containing 5% CO2 for 3 days. Cell viabilities were measured quantitatively using resazurin dye, by adding 25-µl resazurin (0.1 mg/ml in HBSS) to each well, and the mixture incubated for 6 h in the incubator. Fluorescence emission was detected at 570 and 585 nm after excitation at 530 nm, and fluorescence at 570 nm was subtracted from 585 nm. The inhibition curves were fitted with normalized fluorescence signal (in percentage) against concentration of compounds in Log10 scale using GraphPad Prism, and best fit was used for EC50 estimation. Chemical structures were drawn with ChemDraw 20.0.

HepG2 cells = test: Cytotoxicity test on HepG2 cells; conditions: read-out: Human cell cytotoxicity (EC50); HepG2, serial dilutions of up to 200 µM
TbPEX19-His = test: NMR saturation transfer difference (STD) with TbPEX19-His; format: binding, Trypanosoma brucei; conditions: 10 μM protein, 300 µM ligand
Description: as §1

Biotin-TbPEX5pep = test: ELISA binding of GST-TbPEX14 and Biotin-TbPEX5pep; parameters: species or system Trypanosoma brucei; conditions: read-out: KD of GST-TbPEX14 (residue1-84) and Biotin-TbPEX5pep
Description: ELISA with TbPEX14–TbPEX5 was used as an independent assay to confirm compound specificity by examining the compound activity on TbPEX14–TbPEX5 interaction. TbPEX14–TbPEX5 assays were performed similarly with following changes. GST-TbPEX14_1-84 was coated, and biotinylated TbPEX5 peptide (Biotin-Aca-Aca-[…]) was used as analyte to a final concentration of 500 nM. Bound PEX5 was detected using streptavidin-conjugated alkaline phosphatase [1:2,000 v/v in PBS, 0.05% v/v Tween 20 (pH 7.4), buffer D, Promega] and p-nitrophenylphosphate (PNPP, Thermo Fisher Scientific) as a substrate, reactions stopped with 3 M NaOH and absorbance read at 405 nm.

Sequence of TbPEX3–TbPEX19 interaction (Q383Q3 entry or part of it, other chains not shown): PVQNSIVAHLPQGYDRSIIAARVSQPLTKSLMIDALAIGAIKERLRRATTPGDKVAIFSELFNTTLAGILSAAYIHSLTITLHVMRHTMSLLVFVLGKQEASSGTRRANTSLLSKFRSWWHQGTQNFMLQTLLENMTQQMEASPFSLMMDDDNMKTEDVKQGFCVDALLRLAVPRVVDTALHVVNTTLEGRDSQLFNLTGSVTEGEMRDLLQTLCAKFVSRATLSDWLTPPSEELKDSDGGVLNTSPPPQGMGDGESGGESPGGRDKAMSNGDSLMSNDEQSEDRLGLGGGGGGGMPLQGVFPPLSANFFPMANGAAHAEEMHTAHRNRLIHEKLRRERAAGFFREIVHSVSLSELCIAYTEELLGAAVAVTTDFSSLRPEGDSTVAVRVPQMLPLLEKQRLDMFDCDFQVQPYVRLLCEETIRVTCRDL
T1 sequence (P08515 whole entry): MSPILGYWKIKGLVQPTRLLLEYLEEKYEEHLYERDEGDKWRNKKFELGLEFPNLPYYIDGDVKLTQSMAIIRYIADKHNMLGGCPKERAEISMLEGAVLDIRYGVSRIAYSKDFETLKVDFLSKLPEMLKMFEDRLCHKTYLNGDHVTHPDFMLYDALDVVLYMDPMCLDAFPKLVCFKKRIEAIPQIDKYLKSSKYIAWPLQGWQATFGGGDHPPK

Molecule	Hacc (hydrogen bond acceptor) [1]	Hdon (hydrogen bond donor) [1]	LogSw [1]	STD NMR effect with GST-His control (GST-His)	Release of glycosomal matrix proteins (HK, gGAPDH) on digitonin fractionation (in words) (BSF427 cells)	EC50 [2] [µM]	PEX11-GFP and matrix protein localization (in words) [3]	Aldolase labeling phenotype (in words) [4]	Mislocalization (% of No. of cells) of aldolase [4]	STD NMR effect with GST-TbPEX3 (GST-TbPEX3d44)	Target protein (NMR analysis) (GST-TbPEX3d44)	IC50 [5] [µM]	EC50 (T. brucei BSF427) [µM]	EC50 (T. brucei BSF427; Trypanosoma brucei, 72 h) [µM]	EC50 (HepG2 cells) [µM]	STD NMR effect with TbPEX19-His (TbPEX19-His)	Kd (Biotin-TbPEX5pep) [µM]
COCC1CCCN(S(=O)(=O)N2CCCN(Cc3cccc(F)c3)CC2)C1 (centres unmarked) [Compound 2, 1-(3-fluorobenzyl)-4-{[3-(methoxymethyl)piperidin-1-yl]sulfonyl}-1,4-diazepane]	4	0	-1.59	not to GST-His; also recorded: not with TbPEX19 or GST	mislocalization of the matrix protein into cytosol	> 200	partly mislocalized to cytosol	mislocalization of aldolase to the cytosol	~21% and 21.2%	significant STD effects; also recorded: strong STD signal	TbPEX3	37.5	27	26.9	–	–	–
CCn1c2c(c3cc(C(=O)N4CCc5[nH]cnc5C4c4cccnc4)ccc31)CCCC2=O (centres unmarked) [Compound 3, 9-ethyl-6-[(4-pyridin-3-yl-1,4,6,7-tetrahydro-5H-imidazo[4,5-c]pyridin-5-yl)carbonyl]-2,3,4,9-tetrahydro-1H-carbazol-1-one]	4	1	-1.77	weak line-broadening	mislocalization of the matrix protein into cytosol	84.4	mislocalization of both PEX11 and matrix proteins	partial mislocalization of aldolase to the cytosol	~27% and 27.5%	strong line-broadening	–	14.3	–	38	84	notable STD signal	–
Cn1ccnc1CNCCOc1cccc2cccnc12 [Compound 4, N-[(1-methyl-1H-imidazol-2-yl)methyl]-2-(quinolin-8-yloxy)ethanamine]	4	1	-1.26	not to GST-His; also recorded: not with TbPEX19 or GST	–	> 200	–	patches of stained aldolase	~14% and 14.3% and ~15%	significant STD effects; also recorded: strong STD signal	TbPEX3	0.5	71	70.7	–	–	–
B1	–	–	–	–	–	–	–	–	–	–	–	–	–	–	–	–	0.52 ± 0.13
